One experiment concerns U87MG tumors. As to the kind of experiment: In vivo tumor suppression. On the set-up: species or system mice. Conditions: without magnet; Dox-equivalent dose 5 mg/kg i.v.; over 30 days. The procedure: The therapeutic efficacy was evaluated by monitoring the tumor volume change every two days over 30 days (FIG. 61A).
The U87MG tumor-bearing mice were randomly divided into six groups with 5 mice in each group. The first group of mice received PBS, as control group; the second group was injected with Dox solution, as “Dox” group; the third group was injected with Dox-MuMVs without magnetic attraction, as “magnet- RGD-” group; the fourth group was injected with RGD-Dox-MuMVs without magnetic enrichment, as “magnet-RGD+” group; the fifth group was injected with Dox-MuMVs under magnetic attraction, as “magnet+RGD-” group; the sixth group was injected with RGD-Dox-MuMVs under magnetic attraction, as “[…]” group. All the experimental groups (2-6 groups) are dispersed in 150 μl PBS before intravenous administration with a Dox-equivalent dose of 5 mg/kg. For the groups under magnetic attraction, the magnet was applied for 1 h along with injection of therapeutic agents. […] after the corresponding treatments, the volume of tumors was measured every other day and calculated by the following equation: V=L×W^2/2. The body weight of the mice was also evaluated during this period to reveal the systemic toxicity of the delivery platform.

The subject of the next experiment is U87MG cells. As to the kind of experiment: MTT cytotoxicity assay. Conditions: Dox concentration. On the technique in general: Tetrazolium dyes change colour on reduction, which living cells bring about.

In brackets after ≈: the same amount, converted by molar mass.

Experimental for U87MG cells: Cells were plated at a density of 1×10^4 in 96-well plates and cultured at 37° C. for 24 hours. Then the culture medium was replaced and the cells were incubated with different concentrations of Dox, Mu magento-vesicles, Dox-Mu magento-vesicles, and RGD-Dox-Mu magento-vesicles for 1 hour. The concentrations of Fe in MuMVs, Dox-MuMVs and RGD-Dox-MuMVs as well as the concentrations of Dox in free drug, Dox-MuMVs and RGD-Dox-MuMVs groups were kept constant for the purpose of comparison. Then the culture medium was replaced with fresh medium and the cells were incubated for another 12 hours, followed by the addition of 20 μL of the MTT solution (5 mg/mL). After incubation for 4 hours, culture supernatants were carefully removed and 100 μL of DMSO was added into each well to dissolve the purple precipitate. The concentration of the reduced MTT in each well was determined spectrophotometrically by subtraction of the absorbance reading at 650 nm from that measured at 570 nm using a microplate reader (SpectraMax M5). Cell viabilities were presented as the percentage of the absorbance of Dox, MuMVs, Dox-MuMVs and RGD-Dox-MuMVs treated cells to the absorbance of non-treated cells and plotted as Fe and Dox concentrations.

The term IC50 denotes the concentration at which inhibition is half-maximal. `COc1cccc2c1C(=O)c1c(O)c3c(c(O)c1C2=O)C[C@@](O)(C(=O)CO)C[C@@H]3O[C@H]1C[C@H](N)[C@H](O)[C@H](C)O1` [Dox, doxorubicin]: the tumor growth entry with U87MG tumors is “Minor delay in tumor growth”. In the experiment on U87MG cells, this compound had an IC50 of 0.47 µg/mL (≈ 0.865 µM).

Values taken from US20190125672A1, “Fabrication of Magnetic Vesicles for Biomedical Imaging and Delivery” (University of Maryland, College Park, priority 2017, published 2019).
